The SangsterLogP compilation

Test: method code SF-HPLC, from PMID: 1388632
Details: pH 7.4

| logD | Structure (SMILES) |
| --- | --- |
| 0.37 | CC(=O)C1=CC(=O)c2c(c(CO)c3n2CCCC3O)C1=O (centres undefined) |
| 1.15 | CC(=O)OCc1c2c(n3c1C(OC(C)=O)CC3)C(=O)C=C(C(C)=O)C2=O (centres undefined) |
| 1.14 | CC(=O)C1=C(C)C(=O)c2c(c(CO)c3n2CCC3O)C1=O (centres undefined) |
| 2.81 | CC(=O)OCc1c2c(n3c1CCC3)C(=O)C(C)=C(C(C)=O)C2=O |
| -0.09 | CC(=O)C1=CC(=O)c2c(c(CO)c3n2CCC3O)C1=O (centres undefined) |
| 1.83 | CCNC(=O)OCc1c2c(n3c1C(O)CC3)C(=O)C(C)=C(OC)C2=O (centres undefined) |
| 4 | CCCC(=O)OCc1c2c(n3c1C(OC(=O)CCC)CC3)C(=O)C(C)=C(C(C)=O)C2=O (centres undefined) |
| 0.89 | CC(=O)OCc1c2c(n3c1C(O)CCC3)C(=O)C=C(C(C)=O)C2=O (centres undefined) |

| Structure (SMILES) | logD |
| --- | --- |
| CC(=O)OCc1c2c(n3c1C(OC(C)=O)CC3)C(=O)C(C)=C(N1CC1)C2=O (centres undefined) | 1.75 |
